Reference: US6303618A, “Cyclin dependent kinase inhibiting purine derivatives” (priority 1997, dated 2001)
Like-named read-outs stand apart in the source and are kept apart here. Blank lines part the entries; values can stand above or below the molecule they belong to.

Assays:
CDK2 = CDK2 (Homo sapiens, UniProt P24941); assay: CDK inhibition assay, CDK2; format: biochemical
Excerpt: (§1) Apart from reference compounds, the compounds listed are accompanied by an NU reference or identification code number.
(§2) By way of example, however, a typical protocol is summarised below.

CDK1 (p34 cdc2)/cyclin B = assay: CDK inhibition assay (histone H1 kinase), CDK1; format: biochemical, starfish (Marthasterias glacialis); details: for % inhibition CDK1: at 100 μM; for IC50: CDK1; for IC50 / effect of side chain at N9 or N7, or halo at C2, on activity: Table 1; for effect of side chain at N9 or N7, or halo at C2, on activity: in words
Protocol: as §2
Histone H1 (type III-S (Sigma) 4° C.) 5 mg/ml in buffer C.
[^32 P]ATP […]: Make up using (multiples of) the following proportions:
DMSO cannot exceed 1% in the assay mixture. Inhibitors are added at 1/10 final assay volume and 10×final strength. DMSO stocks must therefore be diluted to 10×final desired concentration in ≤10% DMSO, ≥90% buffer C.
Start reaction in each tube at 30 second intervals by adding
5 ml [^32 P]ATP vortexing and placing in rack in waterbath at 30° C.
Terminate reaction after 10 min at 30 second intervals in tubes in same order by removing
25 ml reaction mix and spotting onto appropriately labelled filter, allowing to dry for 20-30 seconds and transferring to stirring 1% phosphoric acid.
Blank incubation is performed as above but without histone (add […] buffer C instead) Washing blank is […] ATP added directly to filter.

CDK4 = CDK4 (Homo sapiens, UniProt P11802); assay: CDK inhibition assay, CDK4; format: biochemical; details: CDK4; Table 1; read-out: IC50 CDK4
CDK4, sequence (P11802 whole entry, species assumed): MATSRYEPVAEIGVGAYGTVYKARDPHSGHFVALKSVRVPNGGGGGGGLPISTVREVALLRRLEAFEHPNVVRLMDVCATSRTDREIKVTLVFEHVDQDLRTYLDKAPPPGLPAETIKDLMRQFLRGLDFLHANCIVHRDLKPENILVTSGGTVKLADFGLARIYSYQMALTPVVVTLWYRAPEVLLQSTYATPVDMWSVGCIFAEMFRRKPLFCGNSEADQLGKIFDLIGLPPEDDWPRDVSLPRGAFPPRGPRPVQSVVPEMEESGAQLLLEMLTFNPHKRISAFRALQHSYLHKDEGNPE
CDK4, sequence (P24385 whole entry partner, species assumed): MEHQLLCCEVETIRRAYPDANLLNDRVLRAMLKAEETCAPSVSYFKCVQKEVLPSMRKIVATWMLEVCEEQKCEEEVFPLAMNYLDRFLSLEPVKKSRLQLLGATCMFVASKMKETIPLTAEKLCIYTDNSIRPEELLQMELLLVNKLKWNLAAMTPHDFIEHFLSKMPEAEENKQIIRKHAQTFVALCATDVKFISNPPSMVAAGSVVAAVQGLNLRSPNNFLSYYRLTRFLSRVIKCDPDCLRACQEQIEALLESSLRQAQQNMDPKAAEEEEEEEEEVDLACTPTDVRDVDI
Excerpt: as §1, §2

[1] = at 100 μM, read-out: % inhibition CDK2
[2] = read-out: % inhibition CDK2, at 100 μM

IC50 (CDK1 (p34 cdc2)/cyclin B): 100 µM
SMILES: Nc1nc(OCCc2ccccc2)c2nc[nH]c2n1 [NU2041, O^6-(2-Phenylethyl)guanine]

IC50 (CDK1 (p34 cdc2)/cyclin B): 38 µM
SMILES: CC/C=C/CCOc1nc(N)nc2[nH]cnc12 [NU2067, O^6-(trans-3'-Hexenyl)guanine]

IC50 (CDK1 (p34 cdc2)/cyclin B): 13 µM
SMILES: C=C(COc1nc(N)nc2[nH]cnc12)C(C)C [NU2055, O^6-(2-Isopropylallyl)guanine]

IC50 (CDK1 (p34 cdc2)/cyclin B): 50 µM
SMILES: CCCOc1nc(N)nc2nc[nH]c12 [NU2045, 2-amino-6-propoxypurine]

IC50 (CDK1 (p34 cdc2)/cyclin B): > 100 µM
SMILES: COCC(COc1nc(N)nc2nc[nH]c12)OC (stereo not drawn) [NU2044, 2-amino-6-(2,3-dimethoy)propoxypurine]

IC50 (CDK1 (p34 cdc2)/cyclin B): 31 µM
SMILES: CCCCCCCOc1nc(N)nc2nc[nH]c12 [NU2064, 2-amino-6-heptyloxypurine]

IC50 (CDK4): 70 µM
IC50 (CDK1 (p34 cdc2)/cyclin B): 18 µM
SMILES: CC(C)CCOc1nc(N)nc2nc[nH]c12 [NU2053, O^6-(3'-Methyl)butylguanine]

IC50 (CDK1 (p34 cdc2)/cyclin B): 105 µM
SMILES: CC(C)C1(COc2nc(N)nc3[nH]cnc23)OCCO1 [NU2057, O^6-(3-Methyl-2-oxobutyl)guanine ethylene acetal]

IC50 (CDK1 (p34 cdc2)/cyclin B): > 100 µM
SMILES: COC(COc1nc(N)nc2[nH]cnc12)(OC)c1ccccc1 [NU2081, 2-amino-6-(2,2-dimethoxy)-2-phenylethyloxypurine]

IC50 (CDK1 (p34 cdc2)/cyclin B): 100 µM
SMILES: CCOc1nc(N)nc2nc[nH]c12 [NU2046, 2-amino-6-ethoxypurine]

Further lines, the molecule ahead of its results:

SMILES: Nc1cc(OCc2ccccc2)nc(N)n1 [NU6038]
inhibition at 100 µM (CDK2; [1]): 0%
% inhibition CDK1 (CDK1 (p34 cdc2)/cyclin B): 3 ± 3%

SMILES: Nc1nc(OCc2ccco2)c2nc[nH]c2n1 [2-amino-6-(2-furanyl)-methyloxypurine]
IC50 (CDK1 (p34 cdc2)/cyclin B): 75 µM

SMILES: C=CCOc1nc(N)nc2c1ncn2CC=C [NU2036, N^9,O^6 -Diallylguanine]
IC50 (CDK1 (p34 cdc2)/cyclin B): > 1000 µM
effect of side chain at N9 or N7, or halo at C2, on activity (CDK1 (p34 cdc2)/cyclin B): activity drastically diminishes

SMILES: CC1(C)O[C@H]2[C@@H](O1)[C@@H](COc1nc(N)nc3[nH]cnc13)O[C@@H]1OC(C)(C)O[C@@H]12 [NU6017]
IC50 (CDK4): > 100 µM
inhibition at 100 µM (CDK2; [2]): 3 ± 7%
% inhibition CDK1 (CDK1 (p34 cdc2)/cyclin B): 10 ± 6%

SMILES: CCCCOc1nc(N)nc2nc[nH]c12 [NU2052, 2-amino-6-n-butoxypurine]
IC50 (CDK1 (p34 cdc2)/cyclin B): 30 µM

SMILES: Nc1nc(OCC2=CCCC2)c2nc[nH]c2n1 [NU2074, O^6-(1'-Cyclopentenyl)methylguanine]
IC50 (CDK1 (p34 cdc2)/cyclin B): 7 µM

SMILES: C=CCOc1ncnc2nc[nH]c12 [NU2013, 6-Allyloxypurine]
IC50 (CDK1 (p34 cdc2)/cyclin B): 110 µM

SMILES: Nc1nc(OCC2COc3ccccc3O2)c2nc[nH]c2n1 (stereo not drawn) [NU6026, 2-amino-6-[1',4'-benzodioxanyl-2'-methyl]oxypurine]
IC50 (CDK4): > 100 µM
% inhibition CDK2 (CDK2; at 10 μM): 9%
inhibition at 10 µM (CDK2; read-out: % inhibition CDK2, at 10 μM): 12%
inhibition at 100 µM (CDK2; [2]): 96%

SMILES: C#CCOc1nc(N)nc2[nH]cnc12 [NU2031, O^6 -Propargylguanine]
IC50 (CDK1 (p34 cdc2)/cyclin B): 60 µM

SMILES: CNc1cc(Cl)nc(N)n1 [NU6042, 2-amino-4-chloro-6-methylamino pyrimidine]
inhibition at 100 µM (CDK2; [1]): 14 ± 24%

SMILES: Nc1nc(N)c(N=O)c(OCc2ccccc2)n1 [NU6039, 2,6-diamino-4-(benzylmethoxy) 5-nitrosopyrimidine]
inhibition at 100 µM (CDK2; [2]): 51 ± 2%
% inhibition CDK1 (CDK1 (p34 cdc2)/cyclin B): 54 ± 9%

SMILES: Nc1nc(OCC2=CCCCC2)c2nc[nH]c2n1 [NU2076, O^6-(1'-Cyclohexenyl)methylguanine]
IC50 (CDK1 (p34 cdc2)/cyclin B): 8 µM

SMILES: Nc1nc(OCC2COC3(CCCCC3)O2)c2nc[nH]c2n1 (stereo not drawn) [NU6022, O^6-(1,4-Dioxaspiro[4.5]decane-2-methoxy)guanine]
inhibition at 100 µM (CDK2; [2]): 27 ± 4%
% inhibition CDK1 (CDK1 (p34 cdc2)/cyclin B): 26 ± 6%

SMILES: C=CCOc1nc(N)nc2ncn(CC=C)c12 [NU2037, N^7,O^6 -Diallylguanine]
IC50 (CDK1 (p34 cdc2)/cyclin B): > 1000 µM
effect of side chain at N9 or N7, or halo at C2, on activity (CDK1 (p34 cdc2)/cyclin B): activity drastically diminishes

SMILES: c1ccc(COc2ncnc3nc[nH]c23)cc1 [NU2002, 6-Benzyloxypurine]
IC50 (CDK1 (p34 cdc2)/cyclin B): 51 µM

SMILES: Nc1cc(OCC2CC=CCC2)nc(N)n1 (stereo not drawn) [NU6046]
inhibition at 100 µM (CDK2; [2]): 8 ± 1%
% inhibition CDK1 (CDK1 (p34 cdc2)/cyclin B): 16 ± 13%

SMILES: Nc1nc(OCC2CCCC2)c2nc[nH]c2n1 [NU2068, O^6 -(Cyclopentyl)methylguanine]
IC50 (CDK4): 34 µM
IC50 (CDK1 (p34 cdc2)/cyclin B): 30 µM

SMILES: CC1(C)OC[C@H](COc2nc(N)nc3[nH]cnc23)O1 [NU6025, 2-amino-6-[(S)-2',2'-dimethyl-1',3'-dioxolane-5'-methyl]oxypurine]
inhibition at 100 µM (CDK2; [2]): 28 ± 4%
% inhibition CDK1 (CDK1 (p34 cdc2)/cyclin B): 34 ± 2%
